Results from US20080125318A1, “Fungicidal Mixtures Containing Enestroburin and at Least One Active Substance from the Group of Azoles” (priority 2004, published 2008).
Like-named read-outs stand apart in the source and are kept apart here.

Assays:
[1] = test system: Botrytis cinerea; assay: Activity against the gray mold pathogen Botrytis cinerea in the microtiter test; type: cell-based; details: day 7 after inoculation, absorption 405 nm
[2] = test system: Phytophthora infestans; type: cell-based; details: day 7 after inoculation, absorption 405 nm
[3] = test system: Puccinia recondita; assay: Protective activity against Puccinia recondita on wheat (brown rust of wheat), greenhouse; type: in vivo, Puccinia recondita on wheat seedlings cultivar Kanzler; details: sprayed 5 days before inoculation, visual rating

| SMILES | Observed efficacy (%) ([1]; 1 ppm single active compound) | Observed efficacy (%) ([1]; 4 ppm single active compound) | Observed efficacy (%) ([2]; 2 ppm single active compound) | Observed efficacy (%) ([2]; 4 ppm single active compound) | Observed efficacy (%) ([3]; 16 ppm single active compound) | Observed efficacy (%) ([3]; 63 ppm single active compound) | Observed efficacy (%) ([3]; 4 ppm single active compound) |
| --- | --- | --- | --- | --- | --- | --- | --- |
| Cc1ccc(-c2c(Cl)nc(C#N)n2S(=O)(=O)N(C)C)cc1 [cyazofamid (II-30), 4-chloro-2-cyano-N,N-dimethyl-5-(4-methylphenyl)-1H-imidazole-1-sulfon-amide] | 0% | 0% |  |  |  |  |  |
| CO/C=C(/C(=O)OC)c1ccccc1CO/N=C(C)/C=C/c1ccc(Cl)cc1 [enestroburin (I), methyl 2-{2-[3-(4-chlorophenyl)-1-methylallylideneaminooxymethyl]phenyl}-3-methoxyacrylate] |  | 48% | 70% | 82% | 22% | 44% |  |
| OC(Cc1ccccc1Cl)(Cn1nc[nH]c1=S)C1(Cl)CC1 (centres unmarked) [prothioconazole (II-19), 2-[2-(1-chlorocyclopropyl)-3-(2-chlorophenyl)-2-hydroxypropyl]-2,4-dihydro[1,2,4]triazol-3-thione] |  |  |  |  |  |  | 0% |
